Results as given in US5461044A, “Cephalosporin derivatives” (Meiji Seika Kaisha, Ltd., priority 1991, dated 1995).
Values after ≈ are worked out from the molar mass of the structure shown. Read-outs that look alike come from different tables or passages of the source.

What was measured:
[1] = tested on: Staphylococcus aureus M133; assay: Minimum growth inhibition concentration, standard serial dilution method; assay type: cell-based; conditions: Staphylococcus aureus M133 (methicillin-resistant); 10^6 CFU/ml, 35° C., 18 to 20 hours
Procedure: (§1) In this Test Example, the antibacterial activity of some exemplary compounds indicated below and chosen from amongst the compounds of the general formula (I) according to this invention is illustrated by determining their minimum growth inhibition concentrations to various bacteria as measured by a standard serial dilution method. In this case, the determination was carried out by inoculating 10^6 CFU/ml of test bacteria to a culture medium N for sensitive disc (as prepared by Nissui Pharmaceutical Co., Ltd.), incubating the bacteria at 35° C. for 18 to 20 hours, and then evaluating the bacterial growth. Test compounds used are as follows:
(§2) The measured values of the minimum growth inhibition concentrations ([…]) of the above-mentioned compounds A, B and C are shown in Table 1.
(§3) Note: (*) means methicillinresistant Staphylococus aureus.

[2] = tested on: Staphylococcus aureus M126; assay: as above; assay type: cell-based; conditions: Staphylococcus aureus M126 (methicillin-resistant); 10^6 CFU/ml, 35° C., 18 to 20 hours
Procedure: as §1, §2, §3

[3] = tested on: Staphylococcus aureus 209P JC-1; assay: as above; assay type: cell-based; conditions: read-out: Minimum growth inhibition concentration
Procedure: as §1, §2

[4] = tested on: Marganella morganii 1510/S-1; assay: as above; assay type: cell-based; conditions: read-out: Minimum growth inhibition concentration
Procedure: as §1, §2

[5] = tested on: Staphylococcus epidermidis ATCC14990; assay: as above; assay type: cell-based; conditions: 10^6 CFU/ml, 35° C., 18 to 20 hours
Procedure: as §1, §2

[6] = tested on: Escherichia coli NIHJ JC-2; assay: as above; assay type: cell-based
Procedure: as §1, §2

Proteus vulgaris GN76 = assay: as above; assay type: cell-based
Procedure: as §1, §2

[7] = tested on: Klebsiella pneumoniae PCI602; assay: as above; assay type: cell-based
Procedure: as §1, §2

[8] = Concentration in blood upon subcutaneous injection in mice (HPLC, serum); assay type: in vivo, mice of ICR strain; conditions: sc, male ICR mice, 0.5 mg per mouse; for half-life / AUC: Gauss-Newton method; for AUC: read-out: AUC (Area under the plasma concentration-time curve); for Cmax: HPLC, read-out: Maximum concentration in blood
Procedure: Test compounds used are as follows:
The test procedure used was as follows. That is, 5 mice of ICR strain (male, 4-weeks-aged, 1 mouse in each group/at the time of collection of blood samples) were used as test animal and 0.5 mg of each test compound dissolved in 0.2 ml of a purified water sterilized for injection was subcutaneously injected to each mouse. Blood samples were collected from each mouse 5 minutes, 15 minutes, 30 minutes, 1 hour and 2 hours after the aministration of test compound. Each blood sample as collected was post-treated in a usual manner and the concentration of the cephem compound in the serum was then quantitatively determined by the use of HPLC (High Performance Liquid Chromatography). A half-life value and AUC which were pharmacokinetic parameters were calculated by the Gauss-Newton method.
AUC means "Area under the plasma concentration-time curve".

[9] = Toxicity (LD50) on intravenous administration in mice; conditions: mouse, in vivo
Procedure: The cephalosporin derivative of the general formula (I) according to this invention can safely be administered to mammals because it is of low toxicity. […] The new cephalosporin derivative of this invention may be administered orally at a unit dose of 100 mg to 250 mg to an adult human patient four times a day, for a guideline. However, precise dosage of the new cephalosporin derivative of this invention is determinable through preliminary routine experiments, depending on the body weight, ages, sex and other various parameters of patients as well as the nature of the bacterial infections to be treated, and so on.

[10] = Proteus vulgaris GN76, 10^6 CFU/ml, 35° C., 18 to 20 hours, read-out: Minimum growth inhibition concentration
[11] = Escherichia coli, NIHJJC2, read-out: Minimum growth inhibition concentration
[12] = Klebsiella pneumoniae, PCI602, read-out: Minimum growth inhibition concentration

| Structure (SMILES) | MIC [1] | MIC [2] | MIC [3] | MIC [4] | MIC [5] | MIC ([6]; NIHJJC2, Escherichia coli NIHJ JC-2, 10^6 CFU/ml, 35° C., 18 to 20 hours, read-out: Minimum growth inhibition concentration) | MIC (Proteus vulgaris GN76; [10]) | MIC ([7]; Klebsiella pneumoniae PCI602, 10^6 CFU/ml, 35° C., 18 to 20 hours, read-out: Minimum growth inhibition concentration) | half-life [8] | AUC [8] | Cmax [8] | MIC [6, 11] | MIC [7, 12] | LD50 [9] | MIC (Proteus vulgaris GN76; Proteus vulgaris, GN76, read-out: Minimum growth inhibition concentration) |
| --- | --- | --- | --- | --- | --- | --- | --- | --- | --- | --- | --- | --- | --- | --- | --- |
| Nc1nc(/C(=N/O)C(=O)NC2C(=O)N3C(C(=O)O)=C(Sc4nc5ccccc5s4)CS[C@H]23)cs1 (stereo partly shown) [B, 7-[(Z)-2-(2-aminothiazol-4-yl)-2hydroxyiminoacetamido]-3-(benzothiazol-2-yl)thio-3-cephem-4-carboxylic acid] | 1.56 µg/mL (≈ 2.92 µM) | 3.13 µg/mL (≈ 5.85 µM) | 0.2 µg/mL (≈ 0.374 µM) | 3.13 µg/mL (≈ 5.85 µM) | 0.2 µg/mL (≈ 0.374 µM) | 25 µg/mL (≈ 46.8 µM) | 100 µg/mL (≈ 187 µM) | 25 µg/mL (≈ 46.8 µM) |  |  |  |  |  |  |  |
| Nc1nc(/C(=N/OCC(=O)O)C(=O)NC2C(=O)N3C(C(=O)O)=C(Sc4nc5ccccc5s4)CSC23)cs1 (stereo not shown) [Compound C, 7-[(Z)-2-(2-aminothiazol-4-yl)-2carboxymethoxyiminoacetamido]-3-(benzothiazol-2-yl)thio3-cephem-4-carboxylic acid] | 12.5 µg/mL (≈ 21.1 µM) | 50 µg/mL (≈ 84.4 µM) | 3.13 µg/mL (≈ 5.28 µM) | 0.78 µg/mL (≈ 1.32 µM) | 1.56 µg/mL (≈ 2.63 µM) |  | 0.1 µg/mL (≈ 0.169 µM) |  | 55.2 min | 131000 ng·h/mL | 80.8 µg/mL | 3.13 µg/mL (≈ 5.28 µM) | 3.13 µg/mL (≈ 5.28 µM) |  |  |
| CO/N=C(\C(=O)NC1C(=O)N2C(C(=O)O)=C(Sc3nc4ccccc4s3)CS[C@H]12)c1csc(N)n1 (stereo partly shown) [Compound A, 7-[(Z)-2-(2-aminothiazol-4-yl)-2methoxyiminoacetamido]-3-(benzothiazol-2-yl)thio-3-cephem-4-carboxylic acid] | 3.13 µg/mL (≈ 5.7 µM) | 6.25 µg/mL (≈ 11.4 µM) | 0.39 µg/mL (≈ 0.711 µM) | 0.78 µg/mL (≈ 1.42 µM) | 0.2 µg/mL (≈ 0.365 µM) |  |  |  | 42 min | 62500 ng·h/mL | 51.6 µg/mL | 3.13 µg/mL (≈ 5.7 µM) | 3.13 µg/mL (≈ 5.7 µM) | 1000 to 1500 mg/kg | 3.13 µg/mL (≈ 5.7 µM) |
